A word on the pIC50: it is the negative decadic logarithm of the IC50, by convention in mol/L.

The values that follow come from patent US10100045B2, “3-aryl-2H-pyrazolo[4,3-b]pyridine compounds and their use as AMPA receptor modulators” (Janssen Pharmaceutica NV, priority 2016, dated 2018).

For this experiment, the target named is GluA1o-γ8 (GRIA1o-CACNG8 fusion construct; TARP γ8 dependent AMPA receptor) (Homo sapiens (Human), UniProt P42261+Q8WXS5). Briefly: Calcium flux assay (FLIPR), inhibition of glutamate response of GluA1o-γ8 channel. The experiment is classed as cell-based. To be noted: HEK293 cells stably expressing GRIA1o-CACNG8 fusion; 15 μM glutamate; negative log of the IC50 in molar. The text has this: This assay was used to test compounds for their ability to inhibit TARP γ8 dependent AMPA receptor activity. The AMPA receptor is a non-selective cation channel activated by glutamate. Ionotropic glutamate receptors normally desensitize too rapidly to allow detectable calcium influx in a FLIPR assay (Strange et al. (2006). “Functional characterisation of homomeric ionotropic glutamate receptors GluR1-GluR6 in a fluorescence-based high throughput screening assay.” Comb Chem High Throughput Screen 9(2): 147-158). But, this desensitization is incomplete, and a substantial steady-state current remains in the sustained presence of glutamate (Cho et al. (2007). “Two families of TARP isoforms that have distinct effects on the kinetic properties of AMPA receptors and synaptic currents.” Neuron 55(6): 890-904). An in vitro assay was used to determine the potency of test compounds as inhibitors of the glutamate response of the channel formed by GluA1o-γ8. To ensure a 1:1 stoichiometry of GluA1o and γ8 subunits in the expressed channel, a fusion of the cDNAs for GRIA1o and CACNG8 was used. Following Shi et al (2009) “The stoichiometry of AMPA receptors and TARPs varies by neuronal cell type.” Neuron 62(5): 633-640), the C-terminus of the cDNA for GRIA1o was fused to the N-terminus of the cDNA for γ8. The linker sequence was QQQQQQQQQQEFAT. Channels expressed with this construct appear to have similar properties to channels formed by co-expression of GRIA1o with an excess of CACNG8 (Shi et al. 2009). A clonal cell line in HEK293 cells stably expressing this construct, with a geneticin selection marker, was generated for use in this assay.
GluA1o-γ8 (GRIA1o-CACNG8 fusion construct; TARP γ8 dependent AMPA receptor), sequence (P42261 other isoform, or with tags, fused parts or gaps): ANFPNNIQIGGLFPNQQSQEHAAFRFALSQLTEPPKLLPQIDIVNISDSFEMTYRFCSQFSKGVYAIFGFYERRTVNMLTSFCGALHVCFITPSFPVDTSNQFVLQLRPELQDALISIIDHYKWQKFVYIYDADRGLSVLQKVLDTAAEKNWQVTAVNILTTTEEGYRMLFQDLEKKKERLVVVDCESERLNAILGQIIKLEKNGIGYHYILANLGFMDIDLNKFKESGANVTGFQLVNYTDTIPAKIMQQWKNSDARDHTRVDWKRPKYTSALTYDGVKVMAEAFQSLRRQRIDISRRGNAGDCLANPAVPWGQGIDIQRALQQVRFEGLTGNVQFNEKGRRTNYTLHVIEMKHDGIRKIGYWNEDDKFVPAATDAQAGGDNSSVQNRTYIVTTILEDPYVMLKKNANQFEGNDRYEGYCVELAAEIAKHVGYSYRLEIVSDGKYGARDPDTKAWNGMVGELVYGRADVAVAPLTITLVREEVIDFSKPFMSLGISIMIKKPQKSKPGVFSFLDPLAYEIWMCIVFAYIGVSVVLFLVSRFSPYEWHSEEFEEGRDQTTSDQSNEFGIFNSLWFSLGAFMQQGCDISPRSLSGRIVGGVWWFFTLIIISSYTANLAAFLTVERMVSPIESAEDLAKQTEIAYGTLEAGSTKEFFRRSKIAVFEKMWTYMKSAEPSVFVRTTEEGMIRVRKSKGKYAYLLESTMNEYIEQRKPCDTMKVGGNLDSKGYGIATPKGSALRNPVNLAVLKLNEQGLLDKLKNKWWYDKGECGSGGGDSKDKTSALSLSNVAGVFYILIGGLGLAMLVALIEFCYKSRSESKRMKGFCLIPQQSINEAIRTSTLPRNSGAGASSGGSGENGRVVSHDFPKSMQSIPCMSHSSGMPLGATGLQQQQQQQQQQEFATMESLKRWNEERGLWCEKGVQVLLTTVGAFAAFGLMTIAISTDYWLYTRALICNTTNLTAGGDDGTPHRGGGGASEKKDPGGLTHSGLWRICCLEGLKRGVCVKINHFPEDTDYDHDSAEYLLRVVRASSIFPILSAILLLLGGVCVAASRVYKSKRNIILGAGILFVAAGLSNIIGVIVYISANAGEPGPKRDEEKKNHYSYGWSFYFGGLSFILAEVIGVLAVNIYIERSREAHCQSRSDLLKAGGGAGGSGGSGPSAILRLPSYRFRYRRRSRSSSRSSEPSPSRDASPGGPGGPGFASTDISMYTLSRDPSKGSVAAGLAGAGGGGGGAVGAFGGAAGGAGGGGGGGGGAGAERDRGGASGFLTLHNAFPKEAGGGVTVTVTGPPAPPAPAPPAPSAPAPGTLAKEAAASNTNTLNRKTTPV
Cell expressing the GRIA1o-CACNG8 fusion construct were grown in a monolayer in 96- or 384-well microtiter plates. They were washed with assay buffer (135 mM NaCl, 4 mM KCl, 3 mM CaCl2, 1 mM MgCl2, 5 mM glucose, 10 mM HEPES, pH 7.4, 300 mOs) using a Biotek EL405 plate washer. The cells were then loaded with a calcium-sensitive dye (Calcium-5 or Calcium-6, Molecular Devices) and the test compounds at a range of concentrations. Calcium flux following the addition of 15 μM glutamate was monitored using a Molecular Devices FLIPR Tetra. The fluorescence in each well was normalized to the fluorescence of negative and positive control wells. The negative control wells had no added compounds, and the positive control wells had been incubated with 10 μM CP465022 (a non-subtype-selective AMPA receptor antagonist) (Lazzaro et al. (2002). “Functional characterization of CP-465,022, a selective, noncompetitive AMPA receptor antagonist.” Neuropharmacology 42(2): 143-153). The responses to glutamate as functions of the test compound concentrations were fitted to a four-parameter logistic function. The fitted parameter corresponding to the midpoint was taken to be the potency of inhibition of the compound. The data in Table 3 below illustrates the observed potentcy for the compounds described herein. pIC50 refers to the negative log of the IC50 in molar.
On the technique in general: Calcium assays in cells follow changes in intracellular calcium, usually with a dye or a luminescent sensor.
Regarding `Cc1cc(-c2c3nc(C(F)(F)F)ccc3nn2C(F)F)cc2cn[nH]c12` [Example 30, 2-(Difluoromethyl)-3-(7-methyl-1H-indazol-5-yl)-5-(trifluoromethyl)-2H-pyrazolo[4,3-b]pyridine], the pIC50 is recorded as 9.2.

In the case of `FC(F)n1nc2ccc(C(F)(F)F)nc2c1-c1cc(Cl)c2[nH]ncc2c1` [Example 31, 3-(7-Chloro-1H-indazol-5-yl)-2-(difluoromethyl)-5-(trifluoromethyl)-2H-pyrazolo[4,3-b]pyridine], the pIC50 is recorded as 9.2.

With `Cc1cc(-c2c3nc(C(F)F)ccc3nn2C(C)C)cc2cn[nH]c12` [Example 34, 5-(Difluoromethyl)-2-isopropyl-3-(7-methyl-1H-indazol-5-yl)-2H-pyrazolo[4,3-b]pyridine], the pIC50 turned out to be 10.0.

For the compound `CC(C)n1nc2ccc(C(F)F)nc2c1-c1cc(Cl)c2c(c1)CC(=O)N2` [Example 36, 7-Chloro-5-(5-(difluoromethyl)-2-isopropyl-2H-pyrazolo[4,3-b]pyridin-3-yl)indolin-2-one], the pIC50 is recorded as 9.4.

For the compound `Cc1cc(-c2c3nccc(C(F)F)c3nn2C(C)C)cc2cn[nH]c12` [Example 38, 7-(Difluoromethyl)-2-isopropyl-3-(7-methyl-1H-indazol-5-yl)pyrazolo[4,3-b]pyridine], the pIC50 is on record as 6.9.

As to `CC(C)n1nc2cccnc2c1-c1cc(Cl)c2[nH]ncc2c1` [Example 39, 3-(7-Chloro-1H-indazol-5-yl)-2-isopropyl-pyrazolo[4,3-b]pyridine], the pIC50 is recorded as 7.2.

On to `Cc1cc(-c2c3nc(C(F)F)cc(C(F)F)c3nn2C(C)C)cc2cn[nH]c12` [Example 40, 5,7-Bis(difluoromethyl)-2-isopropyl-3-(7-methyl-1H-indazol-5-yl)pyrazolo[4,3-b]pyridine], for which the pIC50 was 9.8.
